Measurements from patent US11590116B2 (THERAVANCE BIOPHARMA R&D IP, LLC, priority 2019, dated 2023).

Legend:
[1] = test system: TGF-β-stimulated SMAD3 phosphorylation in BEAS-2B cells; experiment: Cellular ALK5 potency assay, inhibition of TGF-β stimulated pSMAD3 formation in BEAS-2B cells; format: cell-based; settings: Homo sapiens; inhibition of TGF-β stimulated pSMAD3 formation, BEAS-2B cells; read-out: BEAS2B pIC50 (converted)
In short: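 BEAS-2B human lung epithelial cells, seeded overnight, were pre-treated with compound in HBSS/25 mM HEPES/1% BSA for 1 h at 37 °C, then stimulated with TGF-β (final 10 ng/mL) for 30 min. Lysates were assayed for pSMAD3 by AlphaLISA; pIC50 came from dose-dependent signal change versus TGF-β-stimulated untreated cells.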

[2] = target: T1, recombinant human ALK5 (TGF-βR1) protein (Homo sapiens, UniProt P36897); experiment: Biochemical ALK5 (TGF-βR1) assay to measure pKi (LANCE Ultra ULight kinase assay); settings: apparent pKi from pIC50 by Cheng-Prusoff, read-out: ALK5 pKi (converted)
T1 construct: purchased Life Technologies PR9075A
T1 sequence (P36897 34-503): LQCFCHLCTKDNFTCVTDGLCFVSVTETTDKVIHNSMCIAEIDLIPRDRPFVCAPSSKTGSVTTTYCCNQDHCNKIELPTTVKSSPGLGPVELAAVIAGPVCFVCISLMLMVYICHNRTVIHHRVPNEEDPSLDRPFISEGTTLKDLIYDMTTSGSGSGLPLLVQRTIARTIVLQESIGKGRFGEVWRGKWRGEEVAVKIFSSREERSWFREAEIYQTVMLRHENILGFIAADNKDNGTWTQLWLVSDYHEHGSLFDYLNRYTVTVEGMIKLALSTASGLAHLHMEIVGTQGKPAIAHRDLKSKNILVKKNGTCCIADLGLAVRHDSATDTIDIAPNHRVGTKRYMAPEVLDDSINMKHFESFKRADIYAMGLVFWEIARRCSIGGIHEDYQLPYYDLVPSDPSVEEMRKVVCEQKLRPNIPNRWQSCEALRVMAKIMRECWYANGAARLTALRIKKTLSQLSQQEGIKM
In short: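 Compounds (10 μM to 25 pM) were preincubated 60 min at room temperature with enzyme, then reactions were started with ATP (125 μM stock, 5× final) and run 60 min at 37 °C. EDTA-containing Eu-anti-phospho-Topo IIα (Thr1342) antibody stopped the reaction; TR-FRET read at 665 nm. pIC50 from 4-parameter fit, converted to pKi via Cheng-Prusoff.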

| SMILES | IC50 [1] | Ki [2] |
| --- | --- | --- |
| Cc1cccc(-c2n[nH]cc2-c2ccc3ncc(CNCCCN4CCOCC4)cc3n2)n1 [Compound 155, N-[[6-[3-(6-methyl-2-pyridyl)-1H-pyrazol-4-yl]-1,5-naphthyridin-3-yl]methyl]-3-morpholino-propan-1-amine] | 25.1 to 158 nM | 0.398 to 3.16 nM |
| Cc1cccc(-c2n[nH]cc2-c2ccc3ncc(N4CC(N5CCOCC5)C4)cc3n2)n1 [Compound 156, 4-[1-[6-[3-(6-methyl-2-pyridyl)-1H-pyrazol-4-yl]-1,5-naphthyridin-3-yl]azetidin-3-yl]morpholine] | < 20 nM | < 0.0316 nM |
| Cc1cccc(-c2n[nH]cc2-c2ccc3ncc(-c4c[nH]cn4)cc3n2)n1 [Compound 157, 7-(1H-imidazol-4-yl)-2-[3-(6-methyl-2-pyridyl)-1H-pyrazol-4-yl]-1,5-naphthyridine] | 25.1 to 158 nM | 0.0398 to 0.316 nM |
| Cc1cccc(-c2[nH]cnc2-c2ccc3ncc(-c4ccc(C(=O)O[C@@H]5CCN(C)C5)cc4)cc3c2)n1 [Compound 158, [(3R)-1-methylpyrrolidin-3-yl] 4-[6-[5-(6-methyl-2-pyridyl)-1H-imidazol-4-yl]-3-quinolyl]benzoate] | 25.1 to 158 nM | 0.0398 to 0.316 nM |
| Cc1cccc(-c2[nH]cnc2-c2ccc3ncc(N4CC5(CCCNC5)C4)cc3c2)n1 [Compound 159, 3-(2,8-diazaspiro[3.5]nonan-2-yl)-6-[5-(6-methyl-2-pyridyl)-1H-imidazol-4-yl]quinoline] | < 20 nM | < 0.0316 nM |
| Cc1cccc(-c2[nH]cnc2-c2ccc3ncc(N4CCC5(CCNCC5)C4)cc3c2)n1 [Compound 160, 2-[6-[5-(6-methyl-2-pyridyl)-1H-imidazol-4-yl]-3-quinolyl]-2,8-diazaspiro[4.5]decane] | 25.1 to 158 nM | < 0.0316 nM |
| CNCCn1cc(-c2cnc3ccc(-c4c(-c5cccc(C)n5)[nH]c5ccccc45)cc3c2)cn1 [Compound 162, N-methyl-2-[4-[6-[2-(6-methyl-2-pyridyl)-1H-indol-3-yl]-3-quinolyl]pyrazol-1-yl]ethanamine] | 200 to 1260 nM | 0.0398 to 0.316 nM |
| Cc1cccc(-c2[nH]cnc2-c2ccc3ncc(-c4ccc5c(c4)CC(N)C5)cc3c2)n1 (stereo not shown) [Compound 163, 5-[6-[5-(6-methyl-2-pyridyl)-1H-imidazol-4-yl]-3-quinolyl]indan-2-amine] | < 20 nM | 0.0398 to 0.316 nM |
| Cc1cccc(-c2[nH]cnc2-c2ccc3ncc(Nc4nc(CN5CCNCC5)cs4)cc3c2)n1 [Compound 164, N-[6-[5-(6-methyl-2-pyridyl)-1H-imidazol-4-yl]-3-quinolyl]-4-(piperazin-1-ylmethyl)thiazol-2-amine] | 200 to 1260 nM | 0.0398 to 0.316 nM |
| CNCCn1cc(-c2cnc3ccc(-c4c(-c5cccc(C)n5)[nH]c5cccnc45)nc3c2)cn1 [Compound 165, N-methyl-2-[4-[6-[2-(6-methyl-2-pyridyl)-1H-pyrrolo[3,2-b]pyridin-3-yl]-1,5-naphthyridin-3-yl]pyrazol-1-yl]ethanamine] | 200 to 1260 nM | 0.0398 to 0.316 nM |
| Cc1nc(-c2n[nH]cc2-c2ccc3ncc(NCCN4CCN(C(C)C)CC4)cc3c2)ccc1F [Compound 166, 6-[3-(5-fluoro-6-methyl-2-pyridyl)-1H-pyrazol-4-yl]-N-[2-(4-isopropylpiperazin-1-yl)ethyl]quinolin-3-amine] | 25.1 to 158 nM | 0.0398 to 0.316 nM |
| CCOC(=O)C1CC=C(c2cnc3ccc(-c4nc[nH]c4-c4cccc(C)n4)cc3c2)CC1 (stereo not shown) [Compound 167, ethyl 4-[6-[5-(6-methyl-2-pyridyl)-1H-imidazol-4-yl]-3-quinolyl]cyclohex-3-ene-1-carboxylate] | 25.1 to 158 nM | 0.0398 to 0.316 nM |
| Cc1cccc(-c2[nH]cnc2-c2ccc3ncc(N4CCN[C@@H](C(=O)O)C4)cc3c2)n1 [Compound 168, (2R)-4-[6-[5-(6-methyl-2-pyridyl)-1H-imidazol-4-yl]-3-quinolyl]piperazine-2-carboxylic acid] | 1580 to 10000 nM | 0.0398 to 0.316 nM |
| Cc1nc(-c2nc3ccccn3c2-c2ccc3ncc(-c4cn[nH]c4)cc3n2)ccc1F [Compound 169, 2-[2-(5-fluoro-6-methyl-2-pyridyl)imidazo[1,2-a]pyridin-3-yl]-7-(1H-pyrazol-4-yl)-1,5-naphthyridine] | < 20 nM | 0.0398 to 0.316 nM |
| Cc1cccc(-c2nnn(Cc3ccccc3)c2-c2ccc3ncc(-c4cn[nH]c4)cc3n2)n1 [Compound 170, 2-[3-benzyl-5-(6-methyl-2-pyridyl)triazol-4-yl]-7-(1H-pyrazol-4-yl)-1,5-naphthyridine] | 25.1 to 158 nM | 0.0398 to 0.316 nM |
| Cc1cccc(-c2[nH]cnc2-c2ccc3ncc(C4=CC[C@@H](N)CC4)cc3c2)n1 [Compound 171, (1S)-4-[6-[5-(6-methyl-2-pyridyl)-1H-imidazol-4-yl]-3-quinolyl]cyclohex-3-en-1-amine] | < 20 nM | < 0.0316 nM |
| Cc1cccc(-c2n[nH]cc2-c2ccc3ncc(-c4cccc(C(=O)O)c4)cc3n2)n1 [Compound 172, 3-[6-[3-(6-methyl-2-pyridyl)-1H-pyrazol-4-yl]-1,5-naphthyridin-3-yl]benzoic acid] | 1580 to 10000 nM | < 0.0316 nM |
| Cc1nc(-c2n[nH]cc2-c2ccc3ncc(-c4[nH]nc5c4CNCC5)cc3n2)ccc1F [Compound 173, 2-[3-(5-fluoro-6-methyl-2-pyridyl)-1H-pyrazol-4-yl]-7-(4,5,6,7-tetrahydro-2H-pyrazolo[4,3-c]pyridin-3-yl)-1,5-naphthyridine] | 200 to 1260 nM | 0.0398 to 0.316 nM |
| Cc1nc(-c2n[nH]cc2-c2ccc3ncc(-c4ncc5n4CCN5)cc3n2)ccc1F [Compound 174, 7-(2,3-dihydro-1H-imidazo[1,2-c]imidazol-5-yl)-2-[3-(5-fluoro-6-methyl-2-pyridyl)-1H-pyrazol-4-yl]-1,5-naphthyridine] | 200 to 1260 nM | 0.0398 to 0.316 nM |
| Cc1cccc(-c2n[nH]cc2-c2ccc3ncc(-c4nc5c(s4)CNCC5)cc3n2)n1 [Compound 175, 2-[6-[3-(6-methyl-2-pyridyl)-1H-pyrazol-4-yl]-1,5-naphthyridin-3-yl]-4,5,6,7-tetrahydrothiazolo[5,4-c]pyridine] | 25.1 to 158 nM | 0.0398 to 0.316 nM |
| Cc1nc(-c2n[nH]cc2-c2ccc3ncc(-c4nc5n(n4)CCNC5)cc3n2)ccc1F [Compound 176, 2-[3-(5-fluoro-6-methyl-2-pyridyl)-1H-pyrazol-4-yl]-7-(5,6,7,8-tetrahydro-[1,2,4]triazolo[1,5-a]pyrazin-2-yl)-1,5-naphthyridine] | 25.1 to 158 nM | 0.0398 to 0.316 nM |
| Cc1cccc(-c2n[nH]cc2-c2ccc3ncc(-c4nn[nH]n4)cc3n2)n1 [Compound 177, 2-[3-(6-methyl-2-pyridyl)-1H-pyrazol-4-yl]-7-(2H-tetrazol-5-yl)-1,5-naphthyridine] | 1580 to 10000 nM | 0.0398 to 0.316 nM |
| Cc1cccc(-c2n[nH]cc2-c2ccc3ncc(-c4cnn(CCN5CCNCC5)c4)cc3n2)n1 [Compound 178, 2-[3-(6-methyl-2-pyridyl)-1H-pyrazol-4-yl]-7-[1-(2-piperazin-1-ylethyl)pyrazol-4-yl]-1,5-naphthyridine] | 25.1 to 158 nM | < 0.0316 nM |
| Cc1cccc(-c2[nH]cnc2-c2ccc3ncc(N4CC5(CCNCC5)C4)cc3c2)n1 [Compound 179, 3-(2,7-diazaspiro[3.5]nonan-2-yl)-6-[5-(6-methyl-2-pyridyl)-1H-imidazol-4-yl]quinoline] | 25.1 to 158 nM | 0.0398 to 0.316 nM |
| Cc1cccc(-c2[nH]cnc2-c2ccc3ncc(-c4cccc(NC5CNC5)n4)cc3c2)n1 [Compound 180, N-(azetidin-3-yl)-6-[6-[5-(6-methyl-2-pyridyl)-1H-imidazol-4-yl]-3-quinolyl]pyridin-2-amine] | 1580 to 10000 nM | 0.0398 to 0.316 nM |
| Cc1cccc(-c2n[nH]cc2-c2ccc3ncc(N(C)CC(=O)N4CCOCC4)cc3n2)n1 [Compound 181, 2-[methyl-[6-[3-(6-methyl-2-pyridyl)-1H-pyrazol-4-yl]-1,5-naphthyridin-3-yl]amino]-1-morpholino-ethanone] | 25.1 to 158 nM | 0.398 to 3.16 nM |
| Cc1cccc(-c2[nH]ncc2-c2ccc3ncc(C(=O)N(C)CCN4CCOCC4)cc3n2)n1 [Compound 182, N-methyl-6-[5-(6-methyl-2-pyridyl)-1H-pyrazol-4-yl]-N-(2-morpholinoethyl)-1,5-naphthyridine-3-carboxamide] | 200 to 1260 nM | 3.98 to 31.6 nM |
| Cc1cccc(-c2n[nH]cc2-c2ccc3ncc(NCCN4C(C)CNCC4C)cc3n2)n1 (stereo not shown) [Compound 183, N-[2-(2,6-dimethylpiperazin-1-yl)ethyl]-6-[3-(6-methyl-2-pyridyl)-1H-pyrazol-4-yl]-1,5-naphthyridin-3-amine] | 200 to 1260 nM | 0.0398 to 0.316 nM |
| Cc1cccc(-c2[nH]cnc2-c2ccc3ncc(NC4CCNC4)cc3c2)n1 (stereo not shown) [Compound 184, 6-[5-(6-methyl-2-pyridyl)-1H-imidazol-4-yl]-N-pyrrolidin-3-yl-quinolin-3-amine] | 25.1 to 158 nM | 0.0398 to 0.316 nM |
